The structures appear in SMILES notation. Several values for one entry are separate records, joined by “and”; a condition that tells them apart may be missing. Equal values may be shown once. Read-outs that look alike come from different tables or passages of the source. Marks after values point to notes of the source that are not given here. A value given as a limit tells only on which side of the number the result lay.

One experiment concerns the target T1, EphrinB2-EphB1 (Homo sapiens, UniProt P54762).
T1 construct: soluble human EphB1-His, EphB2-His, and EphB4-His ectodomains; commercially available human EphrinB1-Fc (EB1), EphrinB2-Fc (EB2), and EphrinB3-Fc (EB3) ectodomain proteins; purchased
T1 sequence (P54762 18-540 limits assumed): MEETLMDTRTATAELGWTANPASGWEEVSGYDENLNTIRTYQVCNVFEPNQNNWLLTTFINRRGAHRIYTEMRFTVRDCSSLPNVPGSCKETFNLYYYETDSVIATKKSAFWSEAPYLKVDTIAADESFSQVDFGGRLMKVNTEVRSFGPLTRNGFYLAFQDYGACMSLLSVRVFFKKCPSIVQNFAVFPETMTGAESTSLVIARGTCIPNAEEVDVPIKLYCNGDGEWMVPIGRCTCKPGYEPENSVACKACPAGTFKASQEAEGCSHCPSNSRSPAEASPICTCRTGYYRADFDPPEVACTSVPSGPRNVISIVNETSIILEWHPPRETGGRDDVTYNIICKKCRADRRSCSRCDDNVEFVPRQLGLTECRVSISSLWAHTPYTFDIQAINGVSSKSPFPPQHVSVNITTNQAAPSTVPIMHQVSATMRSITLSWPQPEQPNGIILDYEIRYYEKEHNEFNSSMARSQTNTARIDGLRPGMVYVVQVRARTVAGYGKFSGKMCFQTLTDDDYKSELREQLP
Put plainly: Octet 80 sec association/500 sec dissociation, immobilized human EphrinB2-Fc binding to soluble human EphB1-His. Particulars: for EphB1 Inhibition Percent, Inhibition of Association ONLY: at 3.2 μM and 80 seconds; for EphB1 Inhibition Percent, Inhibition of Association ONLY / EphB1 Inhibition Percent, Inhibition of Association-Dissociation: immobilized human EphrinB2, 25 nM soluble human EphB1; for EphB1 Inhibition Percent, Inhibition of Association-Dissociation: at 3.2 μM and 580 seconds. Summed up:
(§1)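 EphrinB2-Fc captured on AHC biosensors, then soluble His-tagged EphB ectodomain (25 nM for % inhibition runs) associated 80 s and dissociated 500 s in PBS, 0.05% Tween-20, 1% DMSO ± compound. Compounds tested at 0.1–3.2 μM with a 10 μM max standard; IC50 from AUC of full traces or at 75 s and 135 s.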

The target in another experiment is T2, EphrinB2-EphB4 (Homo sapiens, UniProt P54760).
T2 construct: soluble human EphB1-His, EphB2-His, and EphB4-His ectodomains; commercially available human EphrinB1-Fc (EB1), EphrinB2-Fc (EB2), and EphrinB3-Fc (EB3) ectodomain proteins; purchased
T2 sequence (P54760 16-539 limits assumed): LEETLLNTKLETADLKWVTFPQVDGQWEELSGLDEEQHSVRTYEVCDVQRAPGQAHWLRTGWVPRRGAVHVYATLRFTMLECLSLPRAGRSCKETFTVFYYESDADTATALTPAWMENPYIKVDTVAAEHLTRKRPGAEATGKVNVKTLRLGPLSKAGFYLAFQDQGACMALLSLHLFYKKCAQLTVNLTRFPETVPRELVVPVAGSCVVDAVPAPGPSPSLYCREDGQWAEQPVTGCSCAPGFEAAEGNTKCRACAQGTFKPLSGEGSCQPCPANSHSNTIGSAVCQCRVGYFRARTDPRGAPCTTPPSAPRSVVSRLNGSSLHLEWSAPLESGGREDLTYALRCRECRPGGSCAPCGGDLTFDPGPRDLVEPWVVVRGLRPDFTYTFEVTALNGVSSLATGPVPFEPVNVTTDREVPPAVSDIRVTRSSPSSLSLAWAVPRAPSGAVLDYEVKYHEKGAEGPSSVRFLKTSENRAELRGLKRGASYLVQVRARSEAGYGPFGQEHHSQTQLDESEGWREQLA
Put plainly: Octet 80 sec association/500 sec dissociation, immobilized human EphrinB2-Fc binding to soluble human EphB4-His. Particulars: for inhibition at 3.2 µM: 25 nM EphB4, 3.2 μM compound, A20-I as max control, 0* = less than 0, no inhibition; for EphB4 Inhibition Percent, Inhibition of Association ONLY: at 3.2 μM and 80 seconds; for EphB4 Inhibition Percent, Inhibition of Association ONLY / EphB4 Inhibition Percent, Inhibition of Association-Dissociation: immobilized human EphrinB2, 25 nM soluble human EphB4; for EphB4 Inhibition Percent, Inhibition of Association-Dissociation: at 3.2 μM and 580 seconds. The procedure, abridged:
as §1

[1] abbreviates: EphB1, 25 nM EphB1, 3.2 μM compound, A20-I as max control, 0* = less than 0, no inhibition, read-out: % Inhibition: Association + Dissociation (160 sec).
[2] abbreviates: EphB1, 25 nM EphB1, 3.2 μM compound, A20-I as max control, 0* = less than 0, no inhibition, read-out: % Inhibition: Association ONLY (80 sec).
[3] abbreviates: EphB4, read-out: % Inhibition: Association + Dissociation (160 sec).

For `Oc1c(I)cc(CN2CCOCC2)c2cccnc12` [Compound 7, 7-iodo-5-(morpholinomethyl)quinolin-8-ol], the “% Inhibited (AUC), Association + Dissociation” value at EphrinB2-EphB1 (EphB1, 0-160 sec, 50 nM, 10 μM compound, Table 4) is 38.4%; on EphrinB2-EphB4 (EphB4, 0-160 sec, 50 nM, 10 μM compound, Table 4) it was 26.5%. Moreover, at EphrinB2-EphB1 (EphB1, 25 nM EphB1, 3.2 μM compound, A20-I as max control, 0* = less than 0, no inhibition), the “% Inhibition: Association + Dissociation (160 sec)” value is 53.1% and 44.3% and 52.4%. Moreover, the inhibition at 3.2 µM on EphrinB2-EphB1 (setting [1]) was 46.8%; at EphrinB2-EphB1 (setting [2]) it was 29.5%; at EphrinB2-EphB4 (setting [3]), 32.9%. For the same compound, the “% Inhibited (AUC), Association” value amounted to 25.0% at EphrinB2-EphB1 (EphB1, 50 nM, 10 μM compound, Table 4) and 13.3% on EphrinB2-EphB4 (EphB4, 50 nM, 10 μM compound, Table 4). Moreover, the inhibition on EphrinB2-EphB1 (EphB1, 10 μM 2×HCl salt, read-out: % Inhibited (AUC), Association) was found to be 36.6%; at EphrinB2-EphB1 (EphB1, first 160 sec, 10 μM 2×HCl salt, read-out: % Inhibited (AUC), Association + Dissociation), 48.5%; at EphrinB2-EphB1 (EphB1, highest dose, typically 3.2 μM, read-out: Association (% Inhibited (AUC))), 32.6%; on EphrinB2-EphB1 (EphB1, highest dose, typically 3.2 μM, read-out: Association + Dissociation (% Inhibited (AUC))), 49.4%; at EphrinB2-EphB4 (EphB4, 10 μM 2×HCl salt, read-out: % Inhibited (AUC), Association), 13.9%; at EphrinB2-EphB4 (EphB4, first 160 sec, 10 μM 2×HCl salt, read-out: % Inhibited (AUC), Association + Dissociation) it was 33.9%. In addition, the inhibition at EphrinB2-EphB4 (EphB4, highest dose, typically 3.2 μM, read-out: Association (% Inhibited (AUC))) was determined as 15.4%; on EphrinB2-EphB4 (EphB4, highest dose, typically 3.2 μM, read-out: Association + Dissociation (% Inhibited (AUC))), 37%. The 50% inhibitory concentration (IC50) was more than 3200 nM at EphrinB2-EphB1 (EphB1, Association (75″), read-out: Absolute IC50); 850 nM at EphrinB2-EphB1 (EphB1, Association (75″), read-out: Relative IC50); more than 3200 nM on EphrinB2-EphB1 (EphB1, Association (AUC), read-out: Absolute IC50); 980 nM at EphrinB2-EphB1 (EphB1, Association (AUC), read-out: Relative IC50); 850 nM at EphrinB2-EphB1 (EphB1, Dissociation (135″), read-out: Absolute IC50); 440 nM at EphrinB2-EphB1 (EphB1, Dissociation (135″), read-out: Relative IC50). For the same compound, the half-inhibitory concentration (IC50) on EphrinB2-EphB1 (EphB1, Full AUC, read-out: Absolute IC50) is 1480 nM; on EphrinB2-EphB1 (EphB1, Full AUC, read-out: Relative IC50), 240 nM; at EphrinB2-EphB4 (EphB4, Association (75″), read-out: Absolute IC50), more than 3200 nM; on EphrinB2-EphB4 (EphB4, Association (75″), read-out: Relative IC50) it was 1700 nM; on EphrinB2-EphB4 (EphB4, Association (AUC), read-out: Absolute IC50) it was more than 3200 nM; on EphrinB2-EphB4 (EphB4, Association (AUC), read-out: Relative IC50), 1660 nM. Besides, the 50% inhibitory concentration (IC50) on EphrinB2-EphB4 (EphB4, Dissociation (135″), read-out: Absolute IC50) stood at 3020 nM; on EphrinB2-EphB4 (EphB4, Dissociation (135″), read-out: Relative IC50), 980 nM; at EphrinB2-EphB4 (EphB4, Full AUC, read-out: Absolute IC50) it was 1260 nM; at EphrinB2-EphB4 (EphB4, Full AUC, read-out: Relative IC50) it was 890 nM.

`Oc1ccc(CN2CCN(Cc3ccccc3)CC2)c2cccnc12` [Compound 41, 5-((4-benzylpiperazin-1-yl)methyl)quinolin-8-ol]: the inhibition at 3.2 µM at EphrinB2-EphB1 (setting [1]) came out at 27.7%; at EphrinB2-EphB1 (setting [2]), 18.7%; on EphrinB2-EphB4 (setting [3]), 2.6%; at EphrinB2-EphB4 (EphB4, read-out: % Inhibition: Association ONLY (80 sec)), 0%. For the same compound, the “selectivity among EphrinB2-EphB1/B2/B4” value on EphrinB2-EphB4 (3.2 μM, listed as QPBN) was “more selective for EphB1”.

For the compound `O=S1(=O)CCN(Cc2ccc(O)c3ncccc23)CC1` [Compound 15, 4-((8-hydroxyquinolin-1-ium-5-yl)methyl)thiomorpholin-4-ium 1,1-dioxide chloride], at EphrinB2-EphB1, the “EphB1 Inhibition Percent, Inhibition of Association ONLY” value is 16.8% and the “EphB1 Inhibition Percent, Inhibition of Association-Dissociation” value came to 28.6%. At EphrinB2-EphB4, the “EphB4 Inhibition Percent, Inhibition of Association ONLY” value is 10.8% and the “EphB4 Inhibition Percent, Inhibition of Association-Dissociation” value worked out at 19.0%.

In the case of `Oc1ccc(CN2CCN(c3ccc(F)cc3F)CC2)c2cccnc12` [Compound 62, 5-((4-(2,4-difluorophenyl)piperazin-1-yl)methyl)quinolin-8-ol], on EphrinB2-EphB1, the “EphB1 Inhibition Percent, Inhibition of Association ONLY” value came out at 17.9% and the “EphB1 Inhibition Percent, Inhibition of Association-Dissociation” value amounted to 14.7%. On EphrinB2-EphB4, the “EphB4 Inhibition Percent, Inhibition of Association ONLY” value is 5.0% and the “EphB4 Inhibition Percent, Inhibition of Association-Dissociation” value is on record as 0*%.

On to `COCc1cc(CN2CCN(C)CC2)c(O)c2ncccc12` [Compound 77, 5-(methoxymethyl)-7-((4-methylpiperazin-1-yl)methyl)quinolin-8-ol, reference compound], for which, at EphrinB2-EphB1, the “EphB1 Inhibition Percent, Inhibition of Association ONLY” value is listed as 16.9% and the “EphB1 Inhibition Percent, Inhibition of Association-Dissociation” value amounted to 35.0%. In addition, on EphrinB2-EphB4, the “EphB4 Inhibition Percent, Inhibition of Association ONLY” value was 0*% and the “EphB4 Inhibition Percent, Inhibition of Association-Dissociation” value was found to be 2.7%.
